1 compound from PMC12016531 (Applied and Environmental Microbiology, 2025) can be followed below.

In assay [1] the test system is L. monocytogenes ATCC 15313. Briefly: MIC/MBC microdilution. It is filed as cell-based, Listeria monocytogenes. The following applies: lowest concentration that killed 99.9%; TSB-YE; highest concentration 100 µM. For orientation: Dilution methods test growth across graded concentrations, often in twofold steps.
Assay [2] relates to L. monocytogenes CMCC 54002. Kind of assay: MIC/MBC microdilution. It is filed as cell-based, Listeria monocytogenes. The following applies: lowest concentration that killed 99.9%; TSB-YE; highest concentration 100 µM.
Assay [3] relates to L. monocytogenes ATCC BAA-751. Briefly: MIC/MBC microdilution. The following applies: lowest concentration that killed 99.9%; TSB-YE; highest concentration 100 µM. It is filed as cell-based, Listeria monocytogenes.
Assay [4] relates to L. monocytogenes ATCC 19112. Briefly: MIC/MBC microdilution. The class given is cell-based, Listeria monocytogenes. The following applies: lowest concentration that killed 99.9%; TSB-YE; highest concentration 100 µM.
The subject of a further assay is L. monocytogenes LM201. Kind of assay: MIC/MBC microdilution. The following applies: lowest concentration that killed 99.9%; TSB-YE; highest concentration 100 µM. The class given is cell-based, Listeria monocytogenes.
The subject of assay [5] is L. monocytogenes ATCC 19118. Kind of assay: MIC/MBC microdilution. The class given is cell-based, Listeria monocytogenes. The following applies: lowest concentration that killed 99.9%; TSB-YE; highest concentration 100 µM.
The subject of assay [6] is Bacillus cereus CMCC63301. Kind of assay: Time-kill curves (OD600 and CFU). The class given is cell-based. The source says: (§1) Cell growth was monitored hourly by measuring CFU on TSB plates and OD600 values of the cultures.
For assay [7], the system named is L. monocytogenes ATCC19111. Kind of assay: Time-kill curves (OD600 and CFU). The class given is cell-based, Listeria monocytogenes.
Excerpt: as §1

Assay [8] relates to L. monocytogenes ATCC19111. Briefly: Potassium release and SEM (cell membrane damage). The class given is cell-based, Listeria monocytogenes. The following applies: potassium release 1×, 8×, 32× MIC, 1 h; SEM 8× and 32× MIC, 3 h, 30°C. The protocol:
The amount of potassium released was measured using a HI96750 Potassium Photometer.
Bacillus cereus CMCC63301 and L. monocytogenes ATCC19111 were grown in TSB medium to an OD600 of 0.3. […] The cells were harvested after centrifugation (6,000 × g, 10 min), washed with PBS buffer thrice, and fixed with 2.5% (vol/vol) glutaraldehyde for 12 h at 4°C. Subsequently, the cells were subjected to gradient dehydration for 10 min, treated with isoamyl acetate for 10 min, dried with a lyophilizer for 12 h, coated with gold-palladium, and observed using a Zeiss Gemini360 instrument ([18]).

As for `C/C=C1\NC(=O)CNC(=O)[C@H](CCSC)NC(=O)[C@@H]2CS[C@@H](C)[C@@H](NC(=O)[C@@H]3CSC[C@@H](NC(=O)[C@H](CC(C)C)NC(=O)[C@H](CC(N)=O)NC(=O)[C@@H](N)Cc4ccc(O)cc4)C(=O)N[C@@H](C)C(=O)N[C@@H](C)C(=O)N[C@@H]([C@@H](C)CC)C(=O)N[C@@H](C)C(=O)N[C@@H](CC(=O)O)C(=O)N[C@@H](C)C(=O)N[C@@H](C)C(=O)NCC(=O)N[C@@H](CC(C)C)C(=O)N[C@@H](CCCCN)C(=O)NCC(=O)N[C@@H](CC(N)=O)C(=O)N[C@@H](Cc4ccc(O)cc4)C(=O)NCC(=O)N[C@@H](CCCCN)C(=O)N[C@@H](Cc4ccccc4)C(=O)N3)C(=O)N[C@@H](Cc3ccc(O)cc3)C(=O)N[C@H](CSC[C@@H](C(=O)NCC(=O)N[C@@H](CO)C(=O)O)NC(=O)[C@H](CO)NC(=O)[C@H](C(C)C)NC1=O)C(=O)N[C@@H](C)C(=O)N[C@@H](CCC(=O)O)C(=O)N2` [mycoidesin], the MBC result (in assay [1]; in assay [2]; in assay [3]; in assay [4]; with L. monocytogenes LM201; in assay [5]) was “NA (No activity was detected even at the highest concentration of mycoidesin (100 µM))” throughout. The effect on growth entry was “suppressed the growth” in assay [6] (1× MIC (1.56 µM), TSB, 30°C, 3 h, OD600 and CFU); “completely inhibited its growth” in assay [6] (2× MIC (3.13 µM), TSB, 30°C, 3 h, OD600 and CFU); “suppressed by mycoidesin in a time- and concentration-dependent manner” in assay [7] (1×–32× MIC (0.39–12.5 µM), TSB, 30°C, 3 h, OD600). Besides, in [6] (4× and 8× MIC (6.25 and 12.50 µM), TSB, 30°C, 3 h, OD600 and CFU), the “effect on viable cells” value is “caused cell death after 2 h of treatment”. In addition, the “type of antimicrobial effect” value in assay [6] (high concentrations (2×–8× MIC, 3.13–12.5 µM)) is given as “bactericidal effect”; in [6] (low concentration (1× MIC, 1.56 µM)), “bacteriostatic effect”; in assay [7] (low and high concentrations (1×–32× MIC, 0.39–12.5 µM)) it was “bacteriostatic activity”. Besides, the “cell death (viable count)” value in assay [7] (up to 32× MIC (12.5 µM), 30°C, 3 h, CFU) is reported as “did not cause L. monocytogenes cell membrane damage or cell death”. In addition, the cell membrane damage result in assay [8] is on record as “did not cause L. monocytogenes cell membrane damage or cell death”.
